Patent publication US20260224538A1 (Purdue Research Foundation, priority 2023, published 2026)

How the values were obtained:
Type in all cases: biochemical
[1] = biological target: T1, Aβ1-42 (Homo sapiens, UniProt P05067); test: ThT fluorescence assay of Aβ1-42 fibril formation; details: screen on prone-to-aggregate proteins (FIG. 2A, FIG. 4A); Aβ 7 μM
T1 construct: α-syn, Aβ1-40, Aβ1-42 were procured from rPeptide; purchased rPeptide
Protocol: (§1) Thioflavin-T (ThT) fluorescence assays. Thioflavin-T (ThT) fluorescence assays were used to monitor fibril formation of recombinant Ap (fragments 1-40 and 1-42), recombinant α-syn, recombinant tau isoform 2N4R, synthetic IAPP, and synthetic TTR peptides treated with BTA and its derivatives. The IAPP ThT assay was performed in 10 mM PBS (pH 7.4) at a final concentration of 10 μM for both IAPP and ThT as published previously. Aβ fragments 1-40 and 1-42 were tested at 7 μM in 10 mM of PBS using ThT at a final concentration of 20 μM. Kinetics of α-syn fibrillization were performed as published previously.^36-37 TTR fragment kinetics of fibril formation were assessed at 10 μM in 100 mM sodium acetate buffer supplemented with 100 mM KCl and 1 mM ethylenediaminetetraacetic acid (EDTA) (pH 4) with 20 μM ThT. The fluorescence emission experiments were performed with the excitation and emission wavelengths set at 440 and 485 nm, respectively, with a Synergy HT multi-mode microplate reader (BioTek, Winooski, VT). Samples were measured in three replicates, and the experiments were repeated three times using at least two different stock solutions. For each time point, arbitrary units of fluorescence were calculated from the mean values normalized against the maximum value in each completed assay. The lag time for each condition was calculated as previously described. All results contained in histograms were presented as mean±SEM. Data were analyzed by the one-way analysis of variance with Dunnett's multiple comparisons between controls and compounds. Differences were considered statistically significant at p<0.05.

[2] = biological target: T2, α-synuclein (α-syn) (Homo sapiens, UniProt P37840); test: Thioflavin-T (ThT) fluorescence assay of α-syn fibril formation
T2 construct: purchased rPeptide
Protocol: as §1
Compounds with the highest anti-fibrillary activity were tested at 3.125, 6.25, 12.5, 25, 50, and 100 μM to obtain dose-response curves with prepared α-syn and 2N4R tau at 6.25 μM and 6 μM, respectively. Compounds were tested with α-syn using a previously published procedure. Concerning the tau (isoform 2N4R) kinetics of fibril formation, measurements of ThT fluorescence were performed with a solution of the protein diluted to a final concentration of 6 μM in PBS (pH 7.4) supplemented with 1.5 μM heparin, 20 μM ThT, 2.5 mM DTT, and 100 μM compound. Aliquots of the diluted protein solution (100 μL each) were pipetted into the wells of a 96-well plate, and a Teflon ball was added to each well. The plate was incubated at 37° C. with constant shaking at 1,000 rpm in a Tecan Spark plate reader. ThT fluorescence was measured every 15 minutes with excitation and emission wavelengths of 440 nm and 480 nm, and the data were plotted using GraphPad Prism.

[3] = biological target: T3, transthyretin fragment peptide (TTR81-127) (Homo sapiens, UniProt P02766); test: ThT fluorescence assay of TTR81-127 fibril formation; details: compounds at 100 μM, TTR81-127 10 μM, control 0.25% DMSO
T3 construct: TTR fragment 81-127 was obtained from AnaSpec; purchased AnaSpec; host or cells: synthetic peptide
Protocol: as §1

[4] = biological target: T4, α-syn (Homo sapiens, UniProt P37840); test: Transmission electron microscopy (TEM) of α-syn fibrils; details: compound 100 μM
T4 construct: purchased rPeptide
Protocol: Transmission electron microscopy (TEM). After performing analysis with ThT fluorescence assay, TEM was utilized to detect fibril formation. A volume of 10 μL was applied to a 400-mesh Formvar-carbon-coated copper grid (Electron Microscopy Sciences, Hatfield, PA). The grids were incubated for 1 minute and washed three times with distilled water. They were carefully air-dried and incubated for 1 minute in a fresh solution of 1% uranyl acetate. Samples were air-dried and observed using a transmission microscope. Visualization of the grids was performed with TEM (JEOL 1400 Flash, Japan). Acquisition of pictures was performed with settings of accelerating voltage of 100 kV and magnification of 25 k and/or 40 k.

[5] = biological target: T5, TTR101-125 (Homo sapiens, UniProt P02766); test: ThT fluorescence assay of TTR101-125 fibril formation; details: screen on prone-to-aggregate proteins (FIG. 4A)
T5 construct: TTR fragments 1-25, 26-50, 51-75, 76-100, 81-105, 101-125, and 101-125 were obtained from GenScript; purchased GenScript; host or cells: synthetic peptide
Protocol: as §1

T1 sequence (P05067 672-713 limits assumed): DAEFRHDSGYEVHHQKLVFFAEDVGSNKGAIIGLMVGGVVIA

thioflavin T fluorescence intensity, Aβ1-42 [1]: 27.5±4%
α-syn fibrillization (ThT), dose response ([2]; 3.125-100 μM, plateau phase): protein fibrillization was reduced
remaining activity at 100 µM ([2]; compounds at 100 μM, α-syn 6.25 μM, control 0.25% DMSO, read-out: ThT a-Syn (%), maximum thioflavin T (ThT) intensity in percentage): 36.2 ± 3.1%
ThT TTR81-127 (%), maximum thioflavin T (ThT) intensity in percentage [3]: 54.7 ± 1.4%
remaining activity at 100 µM ([3]; read-out: ThT TTR81-127 (%), maximum thioflavin T (ThT) intensity in percentage): 54.7 ± 1.4%
Compound: Nc1nsc2ccc([N+](=O)[O-])cc12 [A, 5-nitro-1,2-benzothiazol-3-amine]
thioflavin T fluorescence intensity, α-syn ([2]; screen on prone-to-aggregate proteins (FIG. 2A, FIG. 4A)): significantly more effective at preventing the aggregation
α-syn fibrils by TEM [4]: clear effect in reducing α-syn and tau fibrillization
thioflavin T fluorescence intensity, TTR101-125 [5]: significantly more effective at preventing the aggregation
